Experimental data from ChEMBL document CHEMBL1201862, “PubChem BioAssay data set” (2004).
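Cells were grown in 96-well plates and exposed to each compound for 48 hours at five concentrations; endpoints were interpolated linearly between bracketing concentrations, or set to the highest concentration if not reached. GI50 marks 50% less growth.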 Active and inactive are the calls of the source. Cut-off read from the data, not from the text of the source: active = GI50 up to about 1.1 µM and inactive = higher.

Columns and labels:
Test in all cases: DTP human tumour cell line panel, 48 h
CCRF-CEM = system: CCRF-CEM
COLO 205 = system: COLO 205
EKVX = system: EKVX
HCT-116 = system: HCT-116
HCT-15 = system: HCT-15
HL-60 = system: HL-60
HT-29 = system: HT-29
K562 = system: K562
KM12 = system: KM12
MOLT-4 = system: MOLT-4
NCI-H23 = system: NCI-H23
NCI-H460 = system: NCI-H460
OVCAR-3 = system: OVCAR-3
OVCAR-5 = system: OVCAR-5
OVCAR-8 = system: OVCAR-8
SK-MEL-2 = system: SK-MEL-2
SK-MEL-5 = system: SK-MEL-5
SK-OV-3 = system: SK-OV-3
SN12C = system: SN12C
SW-620 = system: SW-620

Row | Structure (SMILES) | GI50 (CCRF-CEM) | GI50 (COLO 205) | GI50 (EKVX) | GI50 (HCT-116) | GI50 (HCT-15) | GI50 (HL-60) | GI50 (HT-29) | GI50 (K562) | GI50 (KM12) | GI50 (MOLT-4) | GI50 (NCI-H23) | GI50 (NCI-H460) | GI50 (OVCAR-3) | GI50 (OVCAR-5) | GI50 (OVCAR-8) | GI50 (SK-MEL-2) | GI50 (SK-MEL-5) | GI50 (SK-OV-3) | GI50 (SN12C) | GI50 (SW-620)
1 | COc1nc(Cl)nc(N[C@H](C)c2c3ccccc3cc3ccccc23)n1 | 10.4 µM (inactive) | 14.4 µM (inactive) | 16.1 µM (inactive) | 12.4 µM (inactive) | 13.3 µM | 19.1 µM (inactive) | 15.5 µM (inactive) | 8.49 µM (inactive) | 11.7 µM (inactive) | 14.1 µM (inactive) | 16.9 µM (inactive) | 17 µM (inactive) | 11.1 µM (inactive) | 17.3 µM (inactive) | 14.8 µM (inactive) | 15.8 µM (inactive) | 5.38 µM (inactive) | 15.7 µM (inactive) | 0.879 µM (active) | 15.2 µM (inactive)
2 | Cc1cccc2sc(-c3ccc(O)cc3)nc12 | 16.9 µM (inactive) | 14.9 µM (inactive) | 0.579 µM (active) | 15.6 µM (inactive) | 12.6 µM | 15.9 µM (inactive) | 15.3 µM (inactive) | 33.3 µM (inactive) | 15.5 µM (inactive) | 43.7 µM (inactive) | 16.5 µM (inactive) | 18.1 µM (inactive) | 16.1 µM (inactive) | 16.4 µM (inactive) | 16.7 µM (inactive) | 17.7 µM (inactive) | 5.81 µM (inactive) | 19.6 µM (inactive) | 18.2 µM (inactive) | 11.5 µM (inactive)
3 | O=C(O)CCCCCCC[C@@H]1S[C@H]1CCCCCCO | > 100 µM (inactive) | > 100 µM (inactive) | > 100 µM (inactive) | > 100 µM (inactive) | > 100 µM | > 100 µM (inactive) | > 100 µM (inactive) | > 100 µM (inactive) | > 100 µM (inactive) | > 100 µM (inactive) | > 100 µM (inactive) | > 100 µM (inactive) | > 100 µM (inactive) | > 100 µM (inactive) | > 100 µM (inactive) | > 100 µM (inactive) | > 100 µM (inactive) | > 100 µM (inactive) | > 100 µM (inactive) | > 100 µM (inactive)
4 | CS(=O)(=O)c1ccc2nc(-c3ccc(O)cc3)sc2c1 | 25.2 µM (inactive) | 22.2 µM (inactive) | 10.5 µM (inactive) | 16.8 µM (inactive) | 16.9 µM | 21.2 µM (inactive) | 13.2 µM (inactive) | 33.8 µM (inactive) | 16 µM (inactive) | 35.6 µM (inactive) | 19 µM (inactive) | 19.4 µM (inactive) | 16.6 µM (inactive) | 17.7 µM (inactive) | 20.5 µM (inactive) | 20 µM (inactive) | 17.4 µM (inactive) | 17.5 µM (inactive) | 17.5 µM (inactive) | 20.7 µM (inactive)
5 | Nc1nc(N)nc(-c2ccccc2NS(=O)(=O)c2ccc([N+](=O)[O-])cc2)n1 | 27.5 µM (inactive) | 17.9 µM (inactive) | > 100 µM (inactive) | 67.5 µM (inactive) | > 84.5 µM | 19.3 µM (inactive) | 53.7 µM (inactive) | > 10 µM (inactive) | 84.9 µM (inactive) | > 54.5 µM (inactive) | 37.2 µM (inactive) | 42.9 µM (inactive) | 54 µM (inactive) | > 100 µM (inactive) | 40.1 µM (inactive) | 81.5 µM (inactive) | 29 µM (inactive) | > 100 µM (inactive) | 97.3 µM (inactive) | > 100 µM (inactive)
6 | O=C(Nc1ccc(I)cc1C(=O)NCCO)c1cccs1 | > 100 µM (inactive) | > 100 µM (inactive) | > 100 µM (inactive) | > 100 µM (inactive) | > 100 µM | > 100 µM (inactive) | > 100 µM (inactive) | > 100 µM (inactive) | > 100 µM (inactive) | > 100 µM (inactive) | > 100 µM (inactive) | 85.3 µM (inactive) | > 100 µM (inactive) | > 100 µM (inactive) | > 100 µM (inactive) | > 100 µM (inactive) | > 100 µM (inactive) | > 100 µM (inactive) | > 100 µM (inactive) | > 100 µM (inactive)
7 | O=C1CCC(c2nc3cc(Cl)ccc3o2)C(=O)N1 (stereo not given) | > 100 µM (inactive) | > 100 µM (inactive) | > 100 µM (inactive) | > 100 µM (inactive) | > 100 µM | > 100 µM (inactive) | > 100 µM (inactive) | > 100 µM (inactive) | > 100 µM (inactive) | > 100 µM (inactive) | > 100 µM (inactive) | > 100 µM (inactive) | > 100 µM (inactive) | > 100 µM (inactive) | > 100 µM (inactive) | > 100 µM (inactive) | > 100 µM (inactive) | > 100 µM (inactive) | > 100 µM (inactive) | > 100 µM (inactive)
8 | CC(C)CC/N=c1/cc2n(-c3ccc(Cl)cc3)c3ccccc3nc-2cc1Nc1ccc(Cl)cc1 | 3.72 µM (inactive) | 1.95 µM (inactive) | 6.12 µM (inactive) | 3.77 µM (inactive) | 3.42 µM | 2.51 µM (inactive) | 2.52 µM (inactive) | 2.96 µM (inactive) | 4.3 µM (inactive) | 2.16 µM (inactive) | 3.43 µM (inactive) | 4.92 µM (inactive) | 2 µM (inactive) | 12.4 µM (inactive) | 7.78 µM (inactive) | 3.96 µM (inactive) | 12.7 µM (inactive) | 18.1 µM (inactive) | 9.27 µM (inactive) | 6.44 µM (inactive)
9 | CCOC(=O)C(C)OC(=O)c1ccc(C)cc1 (stereo not given) | > 100 µM (inactive) | > 100 µM (inactive) | > 100 µM (inactive) | > 100 µM (inactive) | > 100 µM | > 100 µM (inactive) | > 100 µM (inactive) | 64.1 µM (inactive) | > 100 µM (inactive) | > 100 µM (inactive) | > 100 µM (inactive) | > 100 µM (inactive) | > 100 µM (inactive) | > 100 µM (inactive) | > 100 µM (inactive) | > 100 µM (inactive) | > 100 µM (inactive) | > 100 µM (inactive) | > 100 µM (inactive) | > 100 µM (inactive)
10 | COC1=CC(=O)c2c(c(COC(C)=O)cn2C)C1=O | 0.234 µM (active) | 0.0282 µM (active) | 0.279 µM (active) | 0.0347 µM (active) | 0.0197 µM | 0.299 µM (active) | 0.0261 µM (active) | 0.15 µM (active) | 0.0962 µM (active) | 0.305 µM (active) | 0.0715 µM (active) | 0.115 µM (active) | 0.158 µM (active) | 0.0223 µM (active) | 0.122 µM (active) | 0.163 µM (active) | 0.118 µM (active) | 0.119 µM (active) | 0.0622 µM (active) | 0.0249 µM (active)
